From article PMC11202169, “A Novel Fluorescence-Based Microplate Assay for High-Throughput Screening of hSULT1As Inhibitors” (Biosensors, 2024)
“And” between values parts separate entries of the source, which are not always exact repeats. Identical values can stand only once.

Tests used:
Assay type in all cases: biochemical
hSULT1A1 = target: T1, hSULT1A1 (Homo sapiens, UniProt P50225); assay: Fluorescence-based microplate inhibition assay, hSULT1A1-catalyzed HN-241 4-O-sulfation;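 also: reaction started with 200 µM PAPS at 37 °C, fluorescence read continuously (Ex 350 nm, Em 450 nm), activity expressed relative to DMSO-only control without inhibitor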
T1 construct: 6-histidine tag (N); TEV site (N); made in house; host or cells: Escherichia coli BL21 (DE3), pET29a(+)
T1 sequence (P50225 whole entry): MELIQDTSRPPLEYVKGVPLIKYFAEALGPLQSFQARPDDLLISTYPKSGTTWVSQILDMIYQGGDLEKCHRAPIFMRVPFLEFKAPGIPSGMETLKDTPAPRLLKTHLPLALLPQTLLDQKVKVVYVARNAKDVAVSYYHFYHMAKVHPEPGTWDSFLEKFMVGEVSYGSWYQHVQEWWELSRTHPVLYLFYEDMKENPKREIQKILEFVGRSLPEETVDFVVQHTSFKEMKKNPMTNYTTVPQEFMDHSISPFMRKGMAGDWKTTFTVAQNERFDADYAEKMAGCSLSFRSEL

hSULT1A2 = target: T2, hSULT1A2 (Homo sapiens, UniProt P50226); assay: Fluorescence-based microplate inhibition assay, hSULT1A2-catalyzed HN-241 4-O-sulfation; conditions: test compound 10 μM, HN-241 5 μM, 15 min
T2 construct: 6-histidine tag (N); TEV site (N); made in house; host or cells: Escherichia coli BL21 (DE3), pET29a(+)
T2 sequence (P50226 whole entry): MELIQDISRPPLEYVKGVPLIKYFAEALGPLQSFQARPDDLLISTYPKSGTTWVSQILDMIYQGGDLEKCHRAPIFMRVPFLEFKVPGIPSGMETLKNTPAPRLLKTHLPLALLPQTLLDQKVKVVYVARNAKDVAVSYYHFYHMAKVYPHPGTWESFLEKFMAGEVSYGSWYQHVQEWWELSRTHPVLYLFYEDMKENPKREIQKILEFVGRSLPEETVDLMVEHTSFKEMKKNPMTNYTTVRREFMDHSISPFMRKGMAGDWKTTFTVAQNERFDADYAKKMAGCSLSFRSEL

hSULT1A3 = target: T3, hSULT1A3 (Homo sapiens, UniProt P0DMM9); assay: Fluorescence-based microplate inhibition assay, hSULT1A3-catalyzed HN-241 4-O-sulfation
T3 construct: 6-histidine tag (N); TEV site (N); made in house; host or cells: Escherichia coli BL21 (DE3), pET29a(+)
T3 sequence (P0DMM9 whole entry): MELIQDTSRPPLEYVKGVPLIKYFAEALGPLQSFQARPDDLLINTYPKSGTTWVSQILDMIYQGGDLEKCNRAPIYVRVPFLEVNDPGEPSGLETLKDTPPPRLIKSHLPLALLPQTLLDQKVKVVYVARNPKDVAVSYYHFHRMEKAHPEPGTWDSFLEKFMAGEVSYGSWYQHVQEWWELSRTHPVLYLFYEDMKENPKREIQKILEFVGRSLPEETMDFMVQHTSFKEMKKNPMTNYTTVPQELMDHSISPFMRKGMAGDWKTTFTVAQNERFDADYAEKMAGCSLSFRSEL

[1] = test compound 1 μM, HN-241 1 μM, 15 min
[2] = test compound 10 μM, HN-241 10 μM, 15 min

Structure (SMILES) | Residue activity (%) hSULT1A1 (hSULT1A1; [1]) | Residue activity (%) hSULT1A2 (hSULT1A2) | Residue activity (%) hSULT1A3 (hSULT1A3; [2]) | further results
O=C1C=CC(=O)c2cc3ccccc3cc21 [1,4-Anthracenedione] | 29.15% | 1.06% | 94.23% | 
COc1cc2c(c(O)c1OC)C(=O)c1c(cc(C)c(O)c1OC)C2=O [1,7-Dihydroxy-2,3,8-trimethoxy-6-methylanthracene-9,10-dione] | 0.00% | 0.20% | 61.63% | 
C[C@]12CC[C@H](O)C[C@@]1(O)CC[C@@H]1[C@@H]2CC[C@]2(C)[C@@H](c3ccc(=O)oc3)CC[C@]12O [3β,5,14-Trihydroxy-5β-bufa-20,22-dienolide] | 121.35% | 109.91% | 114.49% | 
COc1ccc(/C=C/C(=O)c2ccccc2)cc1 [4-Methoxychalcone] | 78.44% | 75.95% |  | 
O=c1cc(-c2ccccc2)oc2ccc(O)c(O)c12 [5,6-Dihydroxy-2-phenylchromen-4-one] | 18.14% | 8.07% | 68.42% | 
COc1c2occc2cc2ccc(=O)oc12 [8-Methoxypsoralen] |  |  |  | activity at 1 µM (hSULT1A1; test compound 1 μM, HN-241 1 μM, 15 min, read-out: Residue activity (%) hSULT1A1): 107%; remaining activity at 10 µM (hSULT1A2; 0.25 h, read-out: Residue activity (%) hSULT1A2): 110%; activity at 10 µM (hSULT1A3; test compound 10 μM, HN-241 10 μM, 15 min, read-out: Residue activity (%) hSULT1A3): 119%
CC(C)=CCC[C@@](C)(O)[C@H]1CC[C@]2(C)[C@@H]1[C@H](O)C[C@@H]1[C@@]3(C)CC[C@H](O)C(C)(C)[C@@H]3[C@@H](O[C@@H]3O[C@H](CO)[C@@H](O)[C@H](O)[C@H]3O[C@@H]3O[C@@H](C)[C@H](O)[C@@H](O)[C@H]3O)C[C@]12C [20(R)-Ginsenoside Rg2] | 104.07% | 104.32% | 122.28% | 
CC(C)=CCC[C@@](C)(O)[C@H]1CC[C@]2(C)[C@@H]1[C@H](O)C[C@@H]1[C@@]3(C)CC[C@H](O[C@@H]4O[C@H](CO)[C@@H](O)[C@H](O)[C@H]4O)C(C)(C)[C@@H]3CC[C@]12C [20(R)-Ginsenoside Rh2] | 98.01% | 114.69% | 116.23% | 
CC(C)=CCC[C@@](C)(O)[C@H]1CC[C@]2(C)[C@@H]1[C@H](O)C[C@@H]1[C@@]3(C)CC[C@H](O)C(C)(C)[C@@H]3[C@@H](O[C@@H]3O[C@H](CO)[C@@H](O)[C@H](O)[C@H]3O[C@@H]3OC[C@@H](O)[C@H](O)[C@H]3O)C[C@]12C [20(R)-Notoginsenoside R2] | 110.54% | 109.60% | 100.25% | 
CC(C)=CCC[C@](C)(O)[C@H]1CC[C@]2(C)[C@@H]1[C@H](O)C[C@@H]1[C@@]3(C)CC[C@H](O[C@@H]4O[C@H](CO)[C@@H](O)[C@H](O)[C@H]4O)C(C)(C)[C@@H]3CC[C@]12C [20(S)-Ginsenoside Rh2] | 85.94% | 110.74% | 105.44% | 
CC(C)=CCC[C@@](C)(O)[C@H]1CC[C@]2(C)[C@@H]1[C@H](O)C[C@@H]1[C@@]3(C)CC[C@H](O)C(C)(C)[C@@H]3CC[C@]12C [(20R)-Protopanaxdiol] | 99.25% and 99.62% | 97.81% and 101.25% | 110.20% and 105.48% | 
O=c1cc(-c2ccccc2)oc2cc(O)c(O)c(O)c12 [Baicalein] |  |  |  | IC50 (hSULT1A1; hSULT1A1-catalyzed HN-241 4-O-sulfation): 0.0452 ± 0.00391 µM; IC50 (hSULT1A3; hSULT1A3-catalyzed HN-241 4-O-sulfation): 6.32 ± 0.195 µM
COC[C@]12CN(C)[C@@H]3[C@@H]4[C@H](OC)[C@H]1[C@@]3([C@@H](OC)C[C@H]2O)[C@@H]1C[C@@]2(O)[C@H](OC(=O)c3ccccc3)[C@@H]1[C@]4(OC(C)=O)[C@@H](O)[C@@H]2OC [Mesaconitine] |  | 114.51% | 110.31% | 
CC(C)=CCC[C@](C)(O)[C@H]1CC[C@]2(C)[C@@H]1[C@H](O)C[C@@H]1[C@@]3(C)CC[C@H](O)C(C)(C)[C@@H]3[C@@H](O[C@@H]3O[C@H](CO)[C@@H](O)[C@H](O)[C@H]3O[C@@H]3OC[C@@H](O)[C@H](O)[C@H]3O)C[C@]12C [Notoginsenoside R2] | 105.59% | 108.58% |  | 
